Source: US9050301B2, “Pharmaceutical composition for treatment of corneal endothelial wounds containing angiogenin” (Chung-Ang University Industry-Academy Cooperation Foundation, priority 2013, dated 2015)

Key:
Type in all cases: cell-based, human
Conditions in all cases: angiogenin 5 μg/ml
eNOS = assay: Western blot of angiogenin lower pathway, eNOS
Experimental: (§1) The culture medium containing 5 μg/ml of angiogenin was treated with the cultured human corneal endothelial cells for 5 minutes, 10 minutes, 30 minutes, 1 hour, and 3 hours. Afterwards, according to the treatment times, expression aspects of Akt, eNOS, and Erk1/2 genes targeting the lower pathway of angiogenin were analyzed. First, a PRO-PREP™ protein extracting solution (Intron Biotechnology, Seongnam, Korea) was used to separate the total proteins from the corneal endothelial cells. The total proteins (30 μg/sample) were heat-treated at a temperature of about 100° C. for 5 minutes, and then, 10% sodiumdodecyl sulfate polyacrylamide (SDS-PAGE) gel was used to perform electrophoresis. The proteins separated according to molecular weights thereof were transferred to a polyvinylidene fluoride (PVDF) membrane, followed by being blocked by 5% BSA dissolved in 1× tris-buffered saline (TBS) at room temperature for 1 hour. […] The ECL western blotting detection reagent (Amersham Bioscience, Piscataway, USA) was used in terms of luminescence, and then, images were detected by using the same reagent for ChemiDoc™ XRS system (Bio-Rad, Hercules, USA).

Akt = assay: Western blot of angiogenin lower pathway, Akt
Experimental: as §1

Erk1/2 = assay: Western blot of angiogenin lower pathway, Erk1/2
Experimental: as §1

With “Angiogenin: 14.4-kDa single chain protein of 123 amino acids, secreted protein capable of inducing angiogenesis” the “Time of maximal p-eNOS expression after angiogenin treatment” value (eNOS) was 3 h, the “Relative expression of phosphate (p-form/t-form) of eNOS compared with the control group” value (eNOS; 5 minutes to 3 hours) was “increased extent of relative expression of phosphate (p-form/t-form)” and the “Time of maximal p-Akt expression after angiogenin treatment” value (Akt) was 10 min. For the same substance, the “Relative expression of phosphate (p-form/t-form) of Akt compared with the control group” value (Akt; 5 minutes to 3 hours) was “increased extent of relative expression of phosphate (p-form/t-form)”, the “Time of maximal p-Erk1/2 expression after angiogenin treatment” value (Erk1/2) was 30 min and the “Relative expression of phosphate (p-form/t-form) of Erk1/2 compared with the control group” value (Erk1/2; 5 minutes to 3 hours) was “increased extent of relative expression of phosphate (p-form/t-form)”.
